Experimental data as given in patent US11236084B2, “Substituted azaindoline derivatives as NIK inhibitors” (Janssen Pharmaceutica NV, priority 2017, dated 2022).
Where two headings read alike, the source gives them in different places.

Biological target: recombinant human NF-kappaB-inducing kinase (NIK/MAP3K14) (Homo sapiens, UniProt Q99558)
Assay: Biological Assay B: inhibition of auto-phosphorylation of recombinant human NIK/MAP3K14 (AlphaScreen), performed at 2 locations
Type: biochemical
Details: averaged values
Protocol: Inhibition of Auto-Phosphorylation of Recombinant Human NF-kappaB-Inducing Kinase (NIK/MAP3K14) Activity (AlphaScreen®)
NIK/MAP3K14 auto-phosphorylation activity was measured using the AlphaScreen® (αscreen) format (Perkin Elmer). All compounds tested were dissolved in dimethyl sulfoxide (DMSO) and further dilutions were made in assay buffer. Final DMSO concentration was 1% (v/v) in assays. Assay buffer was 50 mM Tris pH 7.5 containing 1 mM EGTA (ethylene glycol tetraacetic acid), 1 mM DTT (dithiothreitol), 0.1 mM Na3VO4, 5 mM MgCl2, 0.01% Tween® 20. Assays were carried out in 384 well Alphaplates (Perkin Elmer). Incubations consisted of compound, 25 microM Adenosine-5′-triphosphate (ATP), and 0.2 nM NIK/MAP3K14. Incubations were initiated by addition of GST-tagged NIK/MAP3K14 enzyme, carried out for 1 h at 25° C. and terminated by addition of stop buffer containing anti-phospho-IKK Ser176/180 antibody. Protein A Acceptor and Glutathione-Donor beads were added before reading using an EnVision® Multilabel Plate Reader (Perkin Elmer). Signal obtained in the wells containing blank samples was subtracted from all other wells and IC50's were determined by fitting a sigmoidal curve to % inhibition of control versus Log10 compound concentration.
Assay B was performed at 2 different locations.
Data for the compounds of the invention in the above assays are provided in Table A (the values in Table are averaged values over all measurements on all batches of a compound; values as IC50 (nM)). (‘n.c.’ means not calculated: ‘Co.’ means compound)

[1] = location 1, AlphaScreen auto-phosphorylation, read-out: Assay B location 1 IC50
[2] = location 2, AlphaScreen auto-phosphorylation, read-out: Assay B location 2 IC50
[3] = location 2, NIK auto-phosphorylation, AlphaScreen, read-out: Assay B location 2 IC50

Sequence of recombinant human NF-kappaB-inducing kinase (NIK/MAP3K14) (Q99558 whole entry): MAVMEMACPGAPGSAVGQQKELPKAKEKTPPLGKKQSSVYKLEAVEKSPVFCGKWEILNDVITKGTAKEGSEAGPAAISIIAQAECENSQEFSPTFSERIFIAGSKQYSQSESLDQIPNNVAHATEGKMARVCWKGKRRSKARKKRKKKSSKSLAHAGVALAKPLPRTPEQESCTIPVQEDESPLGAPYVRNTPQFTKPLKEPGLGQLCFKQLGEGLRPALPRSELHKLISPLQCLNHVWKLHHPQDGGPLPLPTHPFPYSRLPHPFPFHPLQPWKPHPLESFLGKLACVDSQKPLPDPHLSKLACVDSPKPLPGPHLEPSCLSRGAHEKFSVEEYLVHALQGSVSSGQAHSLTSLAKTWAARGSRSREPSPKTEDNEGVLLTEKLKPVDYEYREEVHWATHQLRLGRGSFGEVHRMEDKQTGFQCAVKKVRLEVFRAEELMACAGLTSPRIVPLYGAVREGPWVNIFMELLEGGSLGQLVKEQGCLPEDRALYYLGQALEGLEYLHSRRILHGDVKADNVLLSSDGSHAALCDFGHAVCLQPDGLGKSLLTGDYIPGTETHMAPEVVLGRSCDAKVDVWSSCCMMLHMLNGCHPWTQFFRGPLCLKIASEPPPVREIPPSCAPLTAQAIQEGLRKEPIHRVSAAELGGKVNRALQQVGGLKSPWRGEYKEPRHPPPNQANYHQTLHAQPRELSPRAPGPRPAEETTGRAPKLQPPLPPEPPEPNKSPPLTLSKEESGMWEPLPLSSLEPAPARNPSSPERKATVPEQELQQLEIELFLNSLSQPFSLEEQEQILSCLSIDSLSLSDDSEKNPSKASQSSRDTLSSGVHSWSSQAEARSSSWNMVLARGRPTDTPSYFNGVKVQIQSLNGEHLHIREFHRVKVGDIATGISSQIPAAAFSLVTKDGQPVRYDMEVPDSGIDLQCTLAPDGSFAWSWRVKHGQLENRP

| IC50 [1] [nM] | IC50 [2] [nM] | IC50 [3] [nM] | Compound |
| --- | --- | --- | --- |
| 3.8 | 1.7 | – | CCN1CCN(c2cc(OC)c(Nc3nccc(-c4cnc5c(c4)C(C)(C)CN5)n3)cc2Cl)CC1 [Compound 329] |
| – | 16.6 | – | COc1cc(-n2cncn2)ccc1Nc1nccc(-c2cnc3c(c2)C(C)(CO)CN3)n1 (stereo not drawn) [Compound 207] |
| 13.8 | 11 | – | CC1(CO)CNc2ncc(-c3ccnc(Nc4cc(F)c(N5CCOCC5)cc4Cl)n3)cc21 (stereo not drawn) [Compound 365] |
| – | 30.9 | – | COc1cc(-c2ccnn2C)ccc1Nc1nccc(-c2cnc3c(c2)C(C)(CO)CN3)n1 (stereo not drawn) [Compound 203] |
| – | 5.5 | – | COc1cc(Nc2nccc(-c3cnc4c(c3)C(C)(CO)CN4)n2)ccc1-c1cnn(C)c1 (stereo not drawn) [Compound 188] |
| – | 1.4 | – | COc1ccc(Cl)cc1Nc1nccc(-c2cnc3c(c2)C(C)(CO)CN3)n1 (stereo not drawn) [Compound 183] |
| – | 38 | – | CCC1(CC#N)CNc2ncc(-c3ccnc(Nc4ccc(C(=O)N5CCC(OC)CC5)cc4OC)n3)cc21 (stereo not drawn) [Compound 155] |
| – | 10.7 | – | COc1ccc(CO)cc1Nc1nccc(-c2cnc3c(c2)C(C)(CO)CN3)n1 (stereo not drawn) [Compound 204] |
| – | 26.9 | – | COc1cc(-n2cnc(C)c2)ccc1Nc1nccc(-c2cnc3c(c2)C(C)(CO)CN3)n1 (stereo not drawn) [Compound 202] |
| 3.9 | 0.9 | – | COCCN1CCN(c2cc(OC)c(Nc3nccc(-c4cnc5c(c4)C(C)(CO)CN5)n3)cc2Cl)CC1 (stereo not drawn) [Compound 311] |
| – | 10 | – | COc1cc(N2CCOCC2)c(F)cc1Nc1nccc(-c2cnc3c(c2)C(C)(CO)CN3)n1 (stereo not drawn) [Compound 243] |
| 87.1 | 21.9 | – | COCCOc1cc(N2CCOCC2)c(Cl)cc1Nc1nccc(-c2cnc3c(c2)C(C)(CO)CN3)n1 (stereo not drawn) [Compound 367] |
| 6.2 | 0.7 | – | COc1cc(N)c(Cl)cc1Nc1nccc(-c2cnc3c(c2)C(C)(CO)CN3)n1 (stereo not drawn) [Compound 11] |
| – | 1.6 | – | CC1(C)CNc2ncc(-c3ccnc(Nc4ccc(C(=O)NC5CNC5)cc4)n3)cc21 [Compound 34] |
| 12.3 | 5.1 | – | CCN1CCN(c2cc(OC)c(Nc3nccc(-c4cnc5c(c4)C(C)(CO)CN5)n3)cc2Cl)CC1 (single isomer, unassigned) [Compound 295] |
| 7.9 | 3.8 | – | COc1cc(CN2CCOCC2)c(Cl)cc1Nc1nccc(-c2cnc3c(c2)C(C)(CO)CN3)n1 (stereo not drawn) [Compound 324] |
| – | 33.9 | – | CC(C)Oc1ccccc1Nc1nccc(-c2cnc3c(c2)C(C)(CO)CN3)n1 (stereo not drawn) [Compound 175] |
| – | 3.2 | – | COc1cc(C(=O)N2CCCCC2)ccc1Nc1nccc(-c2cnc3c(c2)C(C)(CO)CN3)n1 (single isomer, unassigned) [Compound 156] |
| – | 49 | – | CC(=O)Nc1ccc(C)c(Nc2nccc(-c3cnc4c(c3)C(C)(CO)CN4)n2)c1 (stereo not drawn) [Compound 211] |
| – | 7.4 | – | COCCCN(C)c1cc(OC)c(Nc2nccc(-c3cnc4c(c3)C(C)(CO)CN4)n2)cc1Cl (stereo not drawn) [Compound 252] |

| IC50 [1] [nM] | IC50 [2] [nM] | IC50 [3] [nM] | Compound |
| --- | --- | --- | --- |
| – | 11.2 | – | CNC(=O)c1ccc(Nc2nccc(-c3cnc4c(c3)C(C)(CO)CN4)n2)c(OC)c1 (stereo not drawn) [Compound 152] |
| 18.3 | 5.7 | – | COc1cc(N2CC3(CCOCC3)C2)c(Cl)cc1Nc1nccc(-c2cnc3c(c2)C(C)(CO)CN3)n1 (single isomer, unassigned) [Compound 3R] |
| – | 3 | – | COc1ccc(F)cc1Nc1nccc(-c2cnc3c(c2)C(C)(CO)CN3)n1 (stereo not drawn) [Compound 182] |
| – | 10.5 | – | COc1ccc(NC(C)=O)cc1Nc1nccc(-c2cnc3c(c2)C(C)(CO)CN3)n1 (stereo not drawn) [Compound 221] |
| – | 63.1 | – | Cc1c(C#N)cccc1Nc1nccc(-c2cnc3c(c2)C(C)(CO)CN3)n1 (stereo not drawn) [Compound 223] |
| – | 4.5 | – | Cc1ccc(Cl)cc1Nc1nccc(-c2cnc3c(c2)C(C)(CO)CN3)n1 (stereo not drawn) [Compound 199] |
| 389 | 355 | – | COc1ccc(-c2cnn(C)c2)cc1Nc1nccc(-c2cnc3c(c2)C(C)(CO)CN3)n1 (stereo not drawn) [Compound 239] |
| 129 | 129 | – | Cc1cc(N2CCOCC2)c(C#N)cc1Nc1nccc(-c2cnc3c(c2)C(C)(CO)CN3)n1 (single isomer, unassigned) [Compound 262] |
| 3.6 | 1.2 | – | COc1cc(N2CC(N(C)C)C2)c(Cl)cc1Nc1nccc(-c2cnc3c(c2)C(C)(CO)CN3)n1 (stereo not drawn) [Compound 289] |
| – | 12.9 | – | COc1cc(N2CCC(C#N)CC2)ccc1Nc1nccc(-c2cnc3c(c2)C(C)(CO)CN3)n1 (stereo not drawn) [Compound 215] |
| 32.4 | 33.1 | – | CCN1CCC(Oc2ccc(Nc3nccc(-c4cnc5c(c4)C(C)(CO)CN5)n3)c(OC)c2)C1 (stereo not drawn) [Compound 233] |
| – | 13.8 | – | COc1cc(N2CCC(OC)CC2)ccc1Nc1nccc(-c2cnc3c(c2)C(C)(CO)CN3)n1 (stereo not drawn) [Compound 213] |
| – | – | 5.6 | COc1cc(CO)c(Cl)cc1Nc1nccc(-c2cnc3c(c2)C(C)(C)CN3)n1 [Compound 339] |
| 3.1 | 1.4 | – | COc1cc(C(=O)N2CCC(OC)C2)c(Cl)cc1Nc1nccc(-c2cnc3c(c2)C(C)(CO)CN3)n1 (stereo not drawn) [Compound 290] |
| 5.3 | 1.8 | – | COc1cc(C(=O)N2CCC(OC)CC2)c(Cl)cc1Nc1nccc(-c2cnc3c(c2)C(C)(C)CN3)n1 [Compound 9] |
| 4 | 2.6 | – | CCN1CCN(c2cc(OC)c(Nc3nccc(-c4cnc5c(c4)C(C)(CO)CN5)n3)cc2F)CC1 (stereo not drawn) [Compound 275] |
| – | 3.6 | – | COc1cccc(Nc2nccc(-c3cnc4c(c3)C(C)(CO)CN4)n2)c1 (stereo not drawn) [Compound 168] |
| 129 | 53.7 | – | CC1(CO)CNc2ncc(-c3ccnc(Nc4cc(F)c(N5CCOCC5)cc4Cl)n3)cc21 (single isomer, unassigned) [Compound 263] |
| 18.2 | 5.9 | – | COc1cc(N2CC(C)(C)C2)c(Cl)cc1Nc1nccc(-c2cnc3c(c2)C(C)(CO)CN3)n1 (stereo not drawn) [Compound 304] |
| 22.9 | 12.9 | – | Cc1cc(N2CCOCC2)c(F)cc1Nc1nccc(-c2cnc3c(c2)C(C)(CO)CN3)n1 (stereo not drawn) [Compound 366] |

| IC50 [1] [nM] | IC50 [2] [nM] | IC50 [3] [nM] | Compound |
| --- | --- | --- | --- |
| 15.5 | 2.6 | – | COc1cc(N2CC3(CCOCC3)C2)c(F)cc1Nc1nccc(-c2cnc3c(c2)C(C)(CO)CN3)n1 (stereo not drawn) [Compound 7] |
| 117 | 70.8 | – | CC1(CO)CNc2ncc(-c3ccnc(Nc4cc(C#N)c(N5CCOCC5)cc4Cl)n3)cc21 (single isomer, unassigned) [Compound 260] |
| 17.8 | 10.7 | – | Cc1cc(N2CCOCC2)c(C#N)cc1Nc1nccc(-c2cnc3c(c2)C(C)(CO)CN3)n1 (stereo not drawn) [Compound 363] |
| – | 12 | – | COc1cccc(Nc2nccc(-c3cnc4c(c3)C(C)(CO)CN4)n2)c1C (stereo not drawn) [Compound 214] |
| 47.9 | 35.5 | – | CC1(CO)CNc2ncc(-c3ccnc(Nc4cc(Cl)c(N5CCOCC5)cc4Cl)n3)cc21 (single isomer, unassigned) [Compound 265] |
| ~6610 | > 10000 | – | COc1ccc(N2CCN(C)CC2)cc1Nc1nccc(-c2cnc3c(c2)C(C)(CO)CN3)n1 (stereo not drawn) [Compound 238] |
| – | – | 3.6 | COc1cc(N2CCC(O)CC2)c(Cl)cc1Nc1nccc(-c2cnc3c(c2)C(C)(C)CN3)n1 [Compound 336] |
| 3.6 | 1.6 | – | COCCN1CC(c2cc(OC)c(Nc3nccc(-c4cnc5c(c4)C(C)(CO)CN5)n3)cc2Cl)C1 (stereo not drawn) [Compound 321] |
| – | 61.7 | – | CNC(=O)c1ccc(C)c(Nc2nccc(-c3cnc4c(c3)C(C)(CO)CN4)n2)c1 (stereo not drawn) [Compound 219] |
| 4 | 2.4 | – | COc1cc(N2CCOCC2)c(Cl)cc1Nc1nccc(-c2cnc3c(c2)C(C)(CO)CN3)n1 (single isomer, unassigned) [Compound 6S] |
| – | 18.6 | – | COc1cc(C(=O)NC(C)(C)CO)ccc1Nc1nccc(-c2cnc3c(c2)C(C)(CO)CN3)n1 (stereo not drawn) [Compound 160] |
| – | 22.4 | – | Cc1cccc(Nc2nccc(-c3cnc4c(c3)C(C)(CO)CN4)n2)c1C (stereo not drawn) [Compound 212] |
| – | 1.7 | – | COc1cc(OCC(=O)N(C)C)c(Cl)cc1Nc1nccc(-c2cnc3c(c2)C(C)(CO)CN3)n1 (stereo not drawn) [Compound 322] |
| 10.2 | 6.9 | – | CC1(CO)CNc2ncc(-c3ccnc(Nc4cc(C#N)c(N5CCOCC5)cc4Cl)n3)cc21 (stereo not drawn) [Compound 364] |
| – | 26.9 | – | COc1cc(-c2ccn(C)n2)ccc1Nc1nccc(-c2cnc3c(c2)C(C)(CO)CN3)n1 (stereo not drawn) [Compound 192] |
| 10.2 | 7.2 | – | Cc1cc(N2CCOCC2)c(F)cc1Nc1nccc(-c2cnc3c(c2)C(C)(CO)CN3)n1 (single isomer, unassigned) [Compound 255] |
| – | 1.6 | – | COCCN(C)c1cc(OC)c(Nc2nccc(-c3cnc4c(c3)C(C)(CO)CN4)n2)cc1Cl (single isomer, unassigned) [Compound 5S] |
| – | 2.7 | – | CCN1CCN(c2cc(OC)c(Nc3nccc(-c4cnc5c(c4)C(C)(CO)CN5)n3)cc2C#N)CC1 (stereo not drawn) [Compound 279] |
| 12 | 2.3 | – | COc1cc(N2CCC2)c(Cl)cc1Nc1nccc(-c2cnc3c(c2)C(C)(CO)CN3)n1 (stereo not drawn) [Compound 294] |
